The values that follow come from paper PMC13403234, “Engineering Cathepsin S Selective Chemical Probes and Antibody−Drug Conjugates through Substrate Profiling with Unnatural Amino Acids” (Journal of Medicinal Chemistry, 2026).

In one assay the target is T1, Cathepsin V (Homo sapiens, UniProt O60911).
T1 construct: made in house
Briefly: Second-order rate constants of inhibition (kobs/[I]), cathepsin V. Type of assay: biochemical. The note with it: Figure 4D; Cy5- and BODIPY-labeled probes. Here is the method:
(§1) All kinetic studies were performed using an fMax fluorescence plate reader (Molecular Devices) in kinetic mode with 96- or 384-well plates. ACC fluorescence was monitored at excitation and emission wavelengths of 355 and 460 nm, respectively. Recombinant human cysteine cathepsins L, V, B, K, and S were expressed and purified as previously described. Prior to use, all cysteine cathepsins were titrated with E64 to normalize enzymatic activity. Assays for cathepsins were conducted in 100 mM sodium acetate buffer containing 10 mM NaCl and 10 mM DTT (pH 5.5). Breast cancer cell lysates (BT-474, MCF-7, MDA-MB-231) were prepared by culturing cells to confluence in the appropriate media, replacing media with PBS, and harvesting the cells using a cell scraper (without trypsin). The cells were pelleted by centrifugation (400 × g, 5 min), resuspended in PBS, and centrifuged again under the same conditions. After removal of the supernatant, the pellet was resuspended in cathepsin assay buffer (excluding DTT) and sonicated. Lysates were then clarified by centrifugation (12,000 × g, 5 min), and the supernatants were collected and stored at −80 °C until use. All enzymatic assays, including HyCoSuL library screening and kinetic analyses of synthetic substrates, inhibitors, probes and prodrugs, were conducted at 37 °C and repeated at least three times. Mean values are reported. Kinetic data were analyzed using GraphPad Prism software (version 10.4.1).
(§2) The second-order rate constants of inhibition (k obs/[I]) were determined for human recombinant cathepsins S, B, L, and V using their respective assay buffers. All measurements were performed under pseudo-first-order kinetic conditions, as previously described. Inhibitors or ABPs were serially diluted in assay buffer and transferred to a 96-well plate. Each well was supplemented with the fluorogenic substrate Cbz-Phe-Arg-AMC at a final concentration of 25 μM and preincubated for 15 min. In parallel, enzymes were preactivated in assay buffer for 15 min at room temperature. Following preincubation, the activated enzymes were added to the wells, and fluorescence was monitored immediately for 30 min. The k obs/[I] values (M^-1S^-1) were calculated from the progress curves and averaged from at least three independent experiments. Final inhibitor (or ABP) concentrations were maintained at a minimum of 5-fold excess relative to enzyme concentrations to ensure pseudo-first-order conditions. Results were analyzed in GraphPad Prism and are reported as mean ± standard deviation.

The target of assay [1] is T2, Cathepsin B (Homo sapiens, UniProt P07858). Description: Labeling of cathepsin B in MDA-MB-231 live cells with Cy5 probes. Type of assay: cell-based. Set-up: endogenous in cells; host or cells: MDA-MB-231. The note with it: cellular environments; probe labeling. As for the experimental part:
(§3) 50,000 of MDA-MB-231 cells were seeded into 12-well plate and allowed to attach overnight. The next day, OG-233 and OG-234 probes (1 μM final concentration) were added to the cells and incubated for various times (from 0,5 h up to 24 h). Control cells were preincubated with cathepsin S inhibitors (JN1, JN4, JN7) at 25 μM for 2 h, and then incubated with OG-233 or OG-234 probes for 24 h. Next, cells were harvested and prepared for SDS-PAGE analysis as described in the above section. Electrophoresis was run for 25 min (4−12% Bis-Tris Plus 10-well gel, 200 V). Next, proteins were transferred onto the membrane (0.2 μm nitrocellulose membrane, 10 V, 60 min) and Ponceau S was used to verify equal loading and transfer. Membranes were then blocked with 5% BSA in TBS-T buffer for 1 h at RT. Membranes were next incubated anticathepsin S antibody (1:1,000, overnight, 4 °C), and the next day with a secondary antibody (IRDye 800CW, donkey anti-Goat) for 30 min at RT, and scanned at 680 and 800 nm using the Sapphire biomolecular imager (Azure Biosystems) to detect the Cy5 probes and cathepsin S. All images were analyzed with Image Studio software.

Assay [2] addresses T2, Cathepsin B. Briefly: Second-order rate constants of inhibition (kobs/[I]), cathepsin B. Type of assay: biochemical. On the set-up: made in house. As to conditions: Figure 4D; Cy5- and BODIPY-labeled probes. Here is the method:
as §1, §2

Assay [3] addresses T3, Cathepsin S (Homo sapiens, UniProt P25774).
T3 construct: made in house
Description: SDS-PAGE profiling of cathepsin labeling by OG-233 ABP. Type of assay: biochemical. As to conditions: cathepsins 10 nM; probe 10, 100, 500 nM; 30 min. As for the experimental part:
Subsequently, each enzyme preparation was incubated with OG-233 at final probe concentrations of 10 nM, 100 nM, and 500 nM for 30 min in a total reaction volume of 200 μL. After incubation, 100 μL of 3× SDS loading buffer containing DTT was added to each sample. The mixtures were boiled for 5 min, and 20 μL of each sample was loaded onto 4−12% Bis-Tris Plus gels (15-well format). Electrophoresis was performed at 200 V for 30 min alongside 2 μL of PageRuler Prestained Protein Ladder. Following separation, the gels were scanned directly at 700 nm (Cy5 fluorescence channel, excitation 685 nm) using a Sapphire biomolecular imager (Azure Biosystems). Band intensities corresponding to labeled cathepsins were quantified using Image Studio software.

The target in assay [4] is T4, active cathepsin S in MDA-MB-231 live cells (Homo sapiens, UniProt P25774).
T4 construct: endogenous in cells; host or cells: MDA-MB-231
Briefly: Labeling of active cathepsin S in MDA-MB-231 live cells with Cy5 probes. As to conditions: probe 1 μM, 0,5 to 24 h. Type of assay: cell-based. Here is the method: as §3

The target in a further assay is T5, Cathepsin L (Homo sapiens, UniProt P07711).
T5 construct: made in house
Briefly: Second-order rate constants of inhibition (kobs/[I]), cathepsin L. In kind it is biochemical. The note with it: Figure 4D; Cy5- and BODIPY-labeled probes. Here is the method: as §1, §2

The target of assay [5] is T3, Cathepsin S. Description: Second-order rate constants of inhibition (kobs/[I]), cathepsin S. In kind it is biochemical. Here is the method:
as §1, §2

T3 sequence (P25774 115-331): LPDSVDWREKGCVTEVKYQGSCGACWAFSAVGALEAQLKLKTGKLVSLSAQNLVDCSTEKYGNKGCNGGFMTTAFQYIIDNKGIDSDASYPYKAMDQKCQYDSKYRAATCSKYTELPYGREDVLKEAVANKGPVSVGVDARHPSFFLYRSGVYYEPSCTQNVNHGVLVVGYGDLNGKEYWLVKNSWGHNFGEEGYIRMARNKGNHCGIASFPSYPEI
T5 sequence (P07711 114-333): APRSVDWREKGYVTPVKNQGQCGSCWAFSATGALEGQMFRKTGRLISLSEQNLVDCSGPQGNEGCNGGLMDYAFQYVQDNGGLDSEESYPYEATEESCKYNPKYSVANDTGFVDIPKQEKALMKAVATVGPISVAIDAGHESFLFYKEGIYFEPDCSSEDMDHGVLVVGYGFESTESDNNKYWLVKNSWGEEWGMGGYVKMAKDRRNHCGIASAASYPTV
T1 sequence (O60911 114-334): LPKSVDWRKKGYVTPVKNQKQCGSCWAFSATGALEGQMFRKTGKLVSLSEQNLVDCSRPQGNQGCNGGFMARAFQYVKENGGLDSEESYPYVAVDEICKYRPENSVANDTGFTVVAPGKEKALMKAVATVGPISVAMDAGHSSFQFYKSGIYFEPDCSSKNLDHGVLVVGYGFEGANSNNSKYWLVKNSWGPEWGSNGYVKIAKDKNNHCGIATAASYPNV
T4 sequence (P25774 115-331): as the sequence (P25774 115-331) above

Consider “Cy5-PEG(4)-Phe(F5)-Cit-Lys(2ClZ)-Glu(Me)-AOMK [OG-233]”, for which, on Cathepsin V, the “kobs/[I] Cath V” value was 460 M⁻¹ s⁻¹. The “off-target labeling of cathepsin B in cells” value on Cathepsin B [1] is recorded as “minor off-target labeling of cathepsin B”. For the same substance, the “kobs/[I] Cath B” value on Cathepsin B [2] is recorded as 8,520 M^-1s^-1. For the same substance, the “labeling of recombinant cathepsins (fluorescent gel scanning)” value at Cathepsin S [3] is on record as “labeled recombinant cathepsin S over other cathepsins”. Moreover, the “detection of active cathepsin S in living cells” value in assay [4] is recorded as “able to detect active cathepsin S as soon as upon 3 h incubation”. For the same substance, at Cathepsin L, the “kobs/[I] Cath L” value came out at 570 M⁻¹ s⁻¹. Besides, the “kobs/[I] Cath S” value at Cathepsin S [5] (Figure 4D, Cy5- and BODIPY-labeled probes) is given as 1,537,000 M^-1s^-1. Further, on Cathepsin S [5] (Figure 4D, calculated from kobs/[I], cathepsin S over cathepsin B), the “Selectivity S to B” value is reported as 180. For the same substance, the “Selectivity S to L” value at Cathepsin S [5] (Figure 4D, calculated from kobs/[I], cathepsin S over cathepsin L) is on record as 2,700. Besides, the “Selectivity S to V” value at Cathepsin S [5] (Figure 4D, calculated from kobs/[I], cathepsin S over cathepsin V) is recorded as 3,340. On Cathepsin S [5] (cathepsin S kobs/[I], probe vs parent inhibitor), the “higher potency than the unlabeled parent inhibitor” value is on record as “over 2 fold”. Moreover, on Cathepsin S [5] (kobs/[I] based), the “selectivity for cathepsin S over cathepsin L” value is listed as above 2000 fold and the “selectivity for cathepsin S over cathepsin V” value was above 500 fold.
